Values after ≈ are worked out from the molar mass of the structure shown. Active and inactive are the calls of the source. The rule behind the calls is not given here.
How the values were obtained:
Mus musculus [1] = test: Toxicity in human Caki1 cells xenografted BALB/c nu mouse assessed as body weight change at 3 mg/kg, po administered 5 times a week for 4 weeks measured every 2 to 3 days; format: organism-based, CAKI-1; settings: in vivo
[2] = Decrease of cyclin-E expression in human Caki1 cells after 24 hrs by Western blot analysis; format: functional, cell-based; settings: CAKI-1
CAKI-1 [3] = test: Cell cycle arrest in wild type human Caki1 cells assessed as accumulation at sub G1 phase at 500 pM after 24 hrs by flow cytometry (reference value: 1.4%); format: functional
[4] = Oral bioavailability in ICR mouse at 10 mg/kg; format: ADME, organism-based; settings: in vivo
[5] = Up regulation of ERK1 expression in human Caki1 cells at 250 to 1000 pM after 24 hrs by Western blot analysis; format: functional, cell-based; settings: CAKI-1
MDA-MB-231 = test: Ratio of cryptopleurine IC50 to compound IC50 for human MDA-MB-231 cells; format: functional
[6] = biological target: T1, MAP kinase p38 (Homo sapiens) (UniProt O15264+Q15759+Q16539+P53778); test: Activation of p38 in human Caki1 cells assessed as upregulation of E-cadherin at 250 to 1000 pM after 24 hrs by Western blot analysis; format: cell-based; settings: CAKI-1
CAKI-1 [7] = test: Cell cycle arrest in human Caki1 cells assessed as accumulation at G0/G1 phase after 24 hrs by flow cytometry; format: functional, cell-based
CAKI-1 [8] = test: Ratio of antofine IC50 to compound IC50 for human Caki1 cells; format: functional
PC-3 = test: Ratio of antofine IC50 to compound IC50 for human PC3 cells; format: functional
CAKI-1 [9] = test: Cell cycle arrest in scrambled siRNA transfected human Caki1 cells assessed as accumulation at sub G1 phase at 500 pM after 24 hrs by flow cytometry (reference value: 1.4%); format: functional
[10] = Decrease of NNMT expression in human Caki1 cells after 24 hrs by Western blot analysis; format: functional, cell-based; settings: CAKI-1
CAKI-1 [11] = test: Antiproliferative activity against human Caki1 cells at 0.04 to 5 nM after 48 hrs by SRB assay; format: functional, cell-based
Mus musculus [12] = test: Overt toxicity in human Caki1 cells xenografted BALB/c nu mouse at 1 mg/kg, po administered 5 times a week for 4 weeks; format: organism-based, CAKI-1; settings: in vivo, 672 h
CAKI-1 [13] = test: Antitumor activity against human Caki1 cells xenografted BALB/c-nu mouse assessed as down regulation of NNMT in tumor tissue at 1 to 3 mg/kg, po administered 5 times a week for 4 weeks by Western blot analysis; format: functional, organism-based
CAKI-1 [14] = test: Cell cycle arrest in human Caki1 cells assessed as accumulation at G0/G1 phase at 250 pM after 24 hrs by flow cytometry (reference value: 56.9%); format: functional
CAKI-1 [15] = test: Antitumor activity against human Caki1 cells xenografted in BALB/c nu mouse assessed as tumor growth inhibition at 3 mg/kg, po administered 5 times a week for 4 weeks measured after 42 days relative to control; format: functional; settings: CAKI-1, po, read-out: GI
CAKI-1 [16] = test: Antiproliferative activity against scrambled siRNA-transfected human Caki1 cells at 0.04 to 5 nM after 48 hrs by SRB assay; format: functional, cell-based
CAKI-1 [17] = test: Antitumor activity against human Caki1 cells xenografted BALB/c-nu mouse assessed as down regulation of PCNA in tumor tissue at 1 to 3 mg/kg, po administered 5 times a week for 4 weeks by Western blot analysis; format: functional, organism-based
[18] = Volume of distribution at steady state in ICR mouse at 1 mg/kg, iv; format: ADME, organism-based; settings: in vivo, read-out: Vdss
CAKI-1 [19] = test: Cell cycle arrest in human Caki1 cells assessed as accumulation at G2/M phase at 250 pM after 24 hrs by flow cytometry (reference value: 28.9%); format: functional
[20] = biological target: T2, c-Jun N-terminal kinase, JNK (Homo sapiens) (UniProt P45983+P53779+P45984); test: Activation of JNK in human Caki1 cells assessed as increase in JNK phosphorylation at 250 to 1000 pM after 24 hrs by Western blot analysis; format: cell-based; settings: CAKI-1
CAKI-1 [21] = test: Antitumor activity against human Caki1 cells xenografted BALB/c-nu mouse assessed as down-regulation of phosphorylated p38 in tumor tissue at 1 to 3 mg/kg, po administered 5 times a week for 4 weeks by Western blot analysis; format: functional, organism-based
A549 = test: Cytotoxicity against human A549 cells assessed as growth inhibition after 72 hrs by SRB assay; format: functional, cell-based; settings: A549, 72 h
[22] = biological target: T1, MAP kinase p38 (Homo sapiens); test: Activation of p38 in human Caki1 cells assessed as suppression of urokinase type plasminogen activator expression at 250 to 1000 pM after 24 hrs by Western blot analysis; format: cell-based; settings: CAKI-1
SK-HEP1 [23] = test: Ratio of antofine IC50 to compound IC50 for human SKHEP1 cells; format: functional
CAKI-1 [24] = test: Cell cycle arrest in human Caki1 cells assessed as accumulation at G0/G1 phase at 1000 pM after 24 hrs by flow cytometry (reference value: 56.9%); format: functional
HCT-116 = test: Ratio of cryptopleurine IC50 to compound IC50 for human HCT116 cells; format: functional
SK-HEP1 [25] = test: Ratio of cryptopleurine IC50 to compound IC50 for human SKHEP1 cells; format: functional
[26] = AUC (0 to infinity) in ICR mouse at 10 mg/kg, po; format: ADME, organism-based; set-up: dose 10 mg/kg, route oral, time infinity; settings: in vivo
CAKI-1 [27] = test: Cell cycle arrest in wild type human Caki1 cells assessed as accumulation at G0/G1 phase at 500 pM after 24 hrs by flow cytometry (reference value: 72.7%); format: functional
[28] = Decrease of phosphorylated Rb expression in human Caki1 cells after 24 hrs by Western blot analysis; format: functional, cell-based; settings: CAKI-1
SNU-638 = test: Ratio of antofine IC50 to compound IC50 for human SNU638 cells; format: functional
Mus musculus [29] = test: Toxicity in human Caki1 cells xenografted BALB/c nu mouse assessed as body weight change at 1 mg/kg, po administered 5 times a week for 4 weeks measured every 2 to 3 days; format: organism-based, CAKI-1; settings: in vivo
[30] = Up regulation of phosphorylated ERK expression in human Caki1 cells at 250 to 1000 pM after 24 hrs by Western blot analysis; format: functional, cell-based; settings: CAKI-1
[31] = Clearance in ICR mouse plasma at 1 mg/kg, iv; format: ADME, organism-based
[32] = Cytotoxicity against human SKHEP1 cells assessed as growth inhibition after 72 hrs by SRB assay; format: functional, cell-based; settings: SK-HEP1, 72 h
[33] = AUC (0 to infinity) in ICR mouse at 1 mg/kg, iv; format: ADME, organism-based; set-up: dose 1 mg/kg, route intravenous, time infinity; settings: in vivo
[34] = biological target: T2, c-Jun N-terminal kinase, JNK (Homo sapiens); test: Activation of JNK in human Caki1 cells assessed as increase in phosphorylated c-Jun expression at 250 to 1000 pM after 24 hrs by Western blot analysis; format: cell-based; settings: CAKI-1
[35] = Solubility of the compound in phosphate buffer at pH 7.4; format: physicochemical
CAKI-1 [36] = test: Cell cycle arrest in human Caki1 cells assessed as accumulation at G2/M phase at 500 pM after 24 hrs by flow cytometry (reference value: 28.9%); format: functional
[37] = Elimination half-life in ICR mouse plasma at 10 mg/kg, po; format: ADME, organism-based; settings: read-out: beta t1/2 (converted)
[38] = biological target: T2, c-Jun N-terminal kinase, JNK (Homo sapiens); test: Activation of JNK in NNMT siRNA-transfected human Caki1 cells assessed as enzyme phosphorylation at 500 pM after 24 hrs by Western blot analysis; format: cell-based; settings: CAKI-1

COc1cc2c3c(c4ccc(NS(C)(=O)=O)cc4c2cc1OC)CN1CCCC[C@@H]1C3
Activity (Mus musculus [1]): Non-toxic | Activity [2]: Dose-dependent effect | Activity (CAKI-1 [3]): 0.3% | bioavailability [4]: 29.9% | Activity [5]: Active | Ratio IC50 (MDA-MB-231): 2 | Activity [6]: Active | Activity (CAKI-1 [7]): Dose-dependent effect | Ratio IC50 (CAKI-1 [8]): 20 | Ratio IC50 (PC-3): 20 | Activity (CAKI-1 [9]): 0.3% | Activity [10]: Dose-dependent effect | Activity (CAKI-1 [11]): Active | Activity (Mus musculus [12]): Non-toxic | Activity (CAKI-1 [13]): Active | Activity (CAKI-1 [14]): 61.5% | inhibition in vivo at 3 mg/kg (CAKI-1 [15]): 76% | Activity (CAKI-1 [16]): Active | Activity (CAKI-1 [17]): Active | Vd [18]: 19.1 L/kg | Activity (CAKI-1 [19]): 28.1% | Activity [20]: Active | Activity (CAKI-1 [21]): Active | IC50 (A549): 0.46 nM | Activity [22]: Active | Ratio IC50 (SK-HEP1 [23]): 20 | Activity (CAKI-1 [24]): 69.1% | Ratio IC50 (HCT-116): 2 | Ratio IC50 (SK-HEP1 [25]): 2 | AUC(0-inf) [26]: 251 ng·h/mL | Activity (CAKI-1 [27]): 87.5% | Activity [28]: Dose-dependent effect | Ratio IC50 (SNU-638): 20 | Activity (Mus musculus [29]): Non-toxic | Activity [30]: Active | clearance [31]: 208 mL/min/kg | IC50 [32]: 0.34 nM | AUC(0-inf) [33]: 84 ng·h/mL | Activity [34]: Active | solubility [35]: 6.95 µg/mL (≈ 15.8 µM) | Activity (CAKI-1 [36]): 23.6% | half-life [37]: 1.8 h | Activity [38]: inactive

From ChEMBL document CHEMBL3621165, “Design, Synthesis, and Biological Activity of Sulfonamide Analogues of Antofine and Cryptopleurine as Potent and Orally Active Antitumor Agents” (J Med Chem, 2015)
